# Earlier results in paper PMC2096531 (Purinergic Signalling, 2005).
# Molecular target: human A2B receptors
# Details: read-out: EC50 A2B, agonist
smiles,measurement,value
"CCNC(=O)[C@H]1O[C@@H](n2cnc3c(N)nc(C#CC(O)c4ccccc4)nc32)[C@H](O)[C@@H]1O (stereo partly drawn) [(R,S)-PHPNECA, (R,S)-2-phenyhydroxypropynyl-N-ethylcarboxamidoadenosine]",EC50,1.1 µM
